In ChEMBL document CHEMBL1201862, “PubChem BioAssay data set” (2004):
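The compound was tested at five concentrations on cells cultured in 96-well plates, with a 48-hour exposure period. GI50 = concentration required for 50% inhibition of growth.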 Active and inactive are the calls of the source. Cut-off read from the data, not from the text of the source: active = GI50 up to about 1.1 µM and inactive = higher.

Columns and labels:
Assay in all cases: inhibition of tumour cell growth, NCI panel, 48 h
[1] = test system: 786-0
[2] = test system: A498
[3] = test system: A549
[4] = test system: ACHN
[5] = test system: CAKI-1
[6] = test system: CCRF-CEM
[7] = test system: COLO 205
[8] = test system: DLD-1
[9] = test system: DMS-114
[10] = test system: DMS-273
[11] = test system: EKVX
[12] = test system: HCC 2998
[13] = test system: HCT-116
[14] = test system: HCT-15
[15] = test system: HL-60
[16] = test system: HOP-18
[17] = test system: HOP-62
[18] = test system: HT-29
[19] = test system: IGROV-1
[20] = test system: K562
[21] = test system: KM-20L2
[22] = test system: KM12
[23] = test system: LOX IMVI
[24] = test system: LXFL 529
[25] = test system: M14
[26] = test system: M19-MEL
[27] = test system: MOLT-4
[28] = test system: Malme-3M
[29] = test system: NCI-H226
[30] = test system: NCI-H23
[31] = test system: NCI-H460
[32] = test system: NCI-H522
[33] = test system: OVCAR-3
[34] = test system: OVCAR-4
[35] = test system: OVCAR-5
[36] = test system: OVCAR-8
[37] = test system: RPMI-8226
[38] = test system: RXF 393
[39] = test system: SF-268
[40] = test system: SF-295
[41] = test system: SF-539
[42] = test system: SK-MEL-28
[43] = test system: SK-MEL-2
[44] = test system: SK-MEL-5
[45] = test system: SK-OV-3
[46] = test system: SN12C
[47] = test system: SNB-19
[48] = test system: SNB-75
[49] = test system: SNB-78
[50] = test system: SW-620
[51] = test system: TK-10
[52] = test system: U-251
[53] = test system: UACC-257
[54] = test system: UACC-62
[55] = test system: UO-31
[56] = test system: HOP-92
[57] = test system: MCF7
[58] = test system: NCI/ADR-RES
[59] = test system: XF498

In the case of `CC(C)NC1CCCCC2c3cc(F)ccc3[C@]12O` (some centres undefined), the GI50 [1] is reported as > 100 µM (inactive), the GI50 [2] is reported as > 100 µM (inactive) and the GI50 [3] is reported as > 100 µM (inactive). For the same compound, the GI50 [4] was > 100 µM (inactive), the GI50 [5] was > 100 µM (inactive) and the GI50 [6] was > 100 µM (inactive). The GI50 [7] was > 100 µM (inactive), the GI50 [8] was > 100 µM (inactive) and the GI50 [9] was > 100 µM (inactive). For the same compound, the GI50 [10] was > 100 µM (inactive), the GI50 [11] was > 100 µM (inactive) and the GI50 [12] was > 100 µM (inactive). The GI50 [13] was > 100 µM (inactive), the GI50 [14] was greater than 100 µM and the GI50 [15] was > 100 µM (inactive). The GI50 [16] was > 100 µM (inactive), the GI50 [17] was > 100 µM (inactive) and the GI50 [18] was > 100 µM (inactive). The GI50 [19] was > 100 µM (inactive), the GI50 [20] was > 100 µM (inactive) and the GI50 [21] was > 100 µM (inactive). For the same compound, the GI50 [22] was > 100 µM (inactive), the GI50 [23] was > 100 µM (inactive) and the GI50 [24] was > 100 µM (inactive). For the same compound, the GI50 [25] was > 100 µM (inactive), the GI50 [26] was > 100 µM (inactive) and the GI50 [27] was > 100 µM (inactive). The GI50 [28] was > 100 µM (inactive), the GI50 [29] was > 100 µM (inactive) and the GI50 [30] was > 100 µM (inactive). The GI50 [31] was > 100 µM (inactive), the GI50 [32] was > 100 µM (inactive) and the GI50 [33] was > 100 µM (inactive). The GI50 [34] was > 100 µM (inactive), the GI50 [35] was > 100 µM (inactive) and the GI50 [36] was > 100 µM (inactive). For the same compound, the GI50 [37] was > 100 µM (inactive), the GI50 [38] was > 100 µM (inactive) and the GI50 [39] was > 100 µM (inactive). For the same compound, the GI50 [40] was > 100 µM (inactive), the GI50 [41] was > 100 µM (inactive) and the GI50 [42] was > 100 µM (inactive). For the same compound, the GI50 [43] was > 100 µM (inactive), the GI50 [44] was > 100 µM (inactive) and the GI50 [45] was > 100 µM (inactive). For the same compound, the GI50 [46] was > 100 µM (inactive), the GI50 [47] was > 100 µM (inactive) and the GI50 [48] was > 100 µM (inactive). For the same compound, the GI50 [49] was > 100 µM (inactive), the GI50 [50] was > 100 µM (inactive) and the GI50 [51] was > 100 µM (inactive). The GI50 [52] was > 100 µM (inactive), the GI50 [53] was > 100 µM (inactive) and the GI50 [54] was > 100 µM (inactive). The GI50 [55] was > 100 µM (inactive).

In the case of `COc1cc(C2c3cc4c(cc3[C@@H](Nc3ccc(N5CCOCC5)cc3)C3COC(=O)[C@H]23)OCO4)cc(OC)c1O` (some centres undefined), the GI50 [2] is reported as 1.01 µM (active), the GI50 [3] is reported as 0.0659 µM (active) and the GI50 [5] is reported as 0.4 µM (active). For the same compound, the GI50 [6] was 0.136 µM (active), the GI50 [7] was 2 µM (inactive) and the GI50 [8] was 1.55 µM (inactive). The GI50 [10] was 0.238 µM (active), the GI50 [11] was 1.97 µM (inactive) and the GI50 [12] was 1.99 µM (inactive). The GI50 [13] was 1.25 µM (inactive), the GI50 [14] was 0.993 µM and the GI50 [15] was 0.0319 µM (active). The GI50 [16] was 0.977 µM (active), the GI50 [17] was 0.274 µM (active) and the GI50 [56] was 0.773 µM (active). For the same compound, the GI50 [18] was 1.65 µM (inactive), the GI50 [19] was 4.01 µM (inactive) and the GI50 [20] was 1.39 µM (inactive). For the same compound, the GI50 [21] was 1.57 µM (inactive), the GI50 [23] was 1.01 µM (active) and the GI50 [26] was 1.71 µM (inactive). The GI50 [57] was 0.177 µM (active), the GI50 [27] was 0.0207 µM (active) and the GI50 [28] was 1.89 µM (inactive). The GI50 [29] was 0.773 µM (active), the GI50 [31] was < 0.01 µM (active) and the GI50 [32] was 1.41 µM (inactive). The GI50 [58] was 3.96 µM (inactive), the GI50 [33] was 2.86 µM (inactive) and the GI50 [34] was 9.84 µM (inactive). For the same compound, the GI50 [35] was 1.82 µM (inactive), the GI50 [36] was 1.32 µM (inactive) and the GI50 [37] was 0.223 µM (active). For the same compound, the GI50 [38] was 2.3 µM (inactive), the GI50 [39] was 1.07 µM (active) and the GI50 [40] was 0.296 µM (active). For the same compound, the GI50 [41] was 0.571 µM (active), the GI50 [42] was 3.82 µM (inactive) and the GI50 [43] was 2.46 µM (inactive). The GI50 [44] was 1.04 µM (active), the GI50 [45] was 0.738 µM (active) and the GI50 [46] was 0.388 µM (active). For the same compound, the GI50 [47] was 0.2 µM (active), the GI50 [48] was 5.19 µM (inactive) and the GI50 [50] was 1.5 µM (inactive). For the same compound, the GI50 [52] was 0.214 µM (active), the GI50 [54] was 0.525 µM (active) and the GI50 [55] was 1.85 µM (inactive). The GI50 [59] was 0.392 µM (active).
